Data published in patent US11103581B2, “Methods and compositions for self-regulated release of active pharmaceutical ingredient” (Acura Pharmaceuticals, Inc., priority 2015, dated 2021).

What was measured:
[1] = pH monitoring of calcium carbonate antacid tablets in HCl dissolution vessel; assay type: physicochemical; conditions: five tablets, 25 mEq of HCl
Protocol: Two dissolution vessels were prepared: one vessel contained 25 mEq of HCl and a single commercially available calcium carbonate antacid tablet (Tums®), and the other vessel contained 25 mEq of HCl and five calcium carbonate antacid tablets. […] Calcium carbonate has shown a capability as a pH modifier and pH dependent solubility.

[2] = acid media pH 1
Protocol: Thus, sodium bicarbonate was added to a prototype formulation primarily to control rapid pH elevation and calcium carbonate for a more sustained control of elevated pH.

SMILES: O=C([O-])[O-].[Ca+2] [calcium carbonate]
- pH reached in 10 minutes [1]: 5

SMILES: O=C([O-])O.[Na+] [sodium bicarbonate]
- time to raise acid media from pH 1 to pH 6 [2]: less than 2 minutes
